{
  "source": "patent US7202239B2",
  "about": "“Cyclohexylphenyl carboxamides tocolytic oxytocin receptor antagonists” (Wyeth, priority 2001, dated 2007)",
  "data": [
    {"target": "human V2 vasopressin receptor subtype (Homo sapiens, UniProt P30518)", "sequence (P30518 whole entry)": "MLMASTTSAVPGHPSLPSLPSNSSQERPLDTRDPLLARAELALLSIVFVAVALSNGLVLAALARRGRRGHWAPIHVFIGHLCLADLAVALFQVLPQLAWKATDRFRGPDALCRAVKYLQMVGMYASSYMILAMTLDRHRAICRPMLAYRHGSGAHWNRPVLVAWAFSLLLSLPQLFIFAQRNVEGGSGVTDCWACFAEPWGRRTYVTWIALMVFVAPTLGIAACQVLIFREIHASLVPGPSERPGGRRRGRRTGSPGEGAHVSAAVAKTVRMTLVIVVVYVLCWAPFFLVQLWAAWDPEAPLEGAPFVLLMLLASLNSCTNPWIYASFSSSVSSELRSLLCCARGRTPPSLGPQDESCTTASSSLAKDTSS", "test": "Vasopressin binding in CHO cell membranes expressing human vasopressin V2 subtype receptors", "conditions": "100 nM, [3H]arginine vasopressin", "text": "(§1) Vasopressin Binding in Chinese Hamster Ovary Cell Membranes Expressing Human Vasopressin V2 Subtype Receptors\n(§2) Chinese Hamster Ovary (CHO) cells stably transfected with the human V2 subtype receptors were obtained from M. Thibonnier, Case Western Reserve University School of Medicine, Cleveland, Ohio.\n(§3) A. Passaging and Amplification of Cells:\n(§4) CHO cells transfected with the human vasopressin V2 subtype receptors obtained from M. Thibonnier (pZeoSV vector) are allowed to grow to confluency (approx. >90%) in T-150 flasks under sterile conditions, in a cell culture medium of F-12 Nutrient Mixture (HAM) with L-glutamine (Gibco Cat. # 11765-054) containing 15 mM HEPES (Gibco Cat. # 15630-080), 1% antibiotic/antimycotic (add 5 mL 100×, Gibco Cat. # 15240-062 per 500 mL F-12), 250 μg/mL Zeocin (add 1.25 mL of 100 mg/mL Invitrogen R-250-01 per 500 mL F-12) and 10% Fetal Bovine Serum (Qualified, heat inactivated, Gibco Cat. # 16140-063). The medium is removed by aspiration and the cells washed with 10 mL of Hank's Balanced Salt solution (Gibco Cat. # 14175-095). The salt solution is removed by aspiration and the cells trypsinized with 5 mL of trypsin-EDTA (0.05% trypsin, 0.53 mM EDTA-4Na, Gibco Cat. # 25300-070) for 1 min. The trypsin is removed by aspiration and the cells dislodged by tapping. Cell Culture medium (e.g. 30 mL for 1:30 split) is immediately added and mixed well to inactivate trypsin. 1 mL of detached cells is added to new culture flasks containing fresh Cell Culture medium (e.g. into 25 mL per T-150 flask), and mixed gently. The cells are incubated at 37° C. in 5% CO2. The medium is changed at 3 to 4 day interval (or as appropriate). The cells grow to confluency (approx. >75%–95%) within 7–8 days. All steps are done under sterile conditions. B. Membrane Preparation: The cells are washed twice gently with Hank's Balanced Salt solution (e.g. use 10 mL per T-150 flask). The excess solution is removed and the cells bathed for 15–30 min. in an enzyme-free Cell Dissociation Buffer (e.g. use 8 mL Hank's Based, Gibco Cat. # 13150-016 per T-150 flask) until cells are loosened. The contents are transferred to centrifuge tubes (50 mL) kept in an ice bath. All subsequent steps are done at 4° C. The tubes are centrifuged at 300× g for 15 min (1380 rpm on SORVAL, Model RT6000D, using the rotor for 50 mL tubes). The supernatant is discarded and the cells suspended in homogeneizing buffer(10 mM Tris-HCl containing 0.25 M sucrose and 1 mM EDTA, pH 7.4) ensuring that the volume of the buffer is about ten times the volume of the cell pellet. The cells are pooled into a centrifuge tube (50 mL) and homogenized with a Polytron at setting 6 for 10 sec. The homogenate is transferred into a Potter-Elvjehm homogeneizer and homogenized with 3 strokes. The homogenate is centrifuged at 1500×g for 60 min at 4° C. (3100 rpm using SORVAL, model RT6000D, using the rotor for 50 mL tubes). The pellet is discarded. The supernatant is centrifuged at 100,000×g for 60 min. at 4° C. (Beckman L8-80M ultracentrifuge; spin at 37,500 rpm with rotor type 70 Ti for 50 mL tubes; 38,000 rpm with type 80Ti for 15 mL tubes; or 35,800 rpm with rotor type 45Ti). The supernantant is discarded and the pellet suspended in 3 to 4 mL of Tris buffer (50 mM TRIS-HCl, pH 7.4). The protein content is estimated by the Bradford or Lowry method. The volume of the membrane suspension is adjusted with the membrane buffer (50 mM Tris-HCl containing 0.1% BSA and 0.1 mM PMSF) to give 3.0 mg/mL (or as appropriate) of protein. The membranes are aliquoted and stored at −70° C. C. Radioligand Binding Assay: In wells of a 96-well format microtiter plate, is added 90, 110 or 130 μL (to make up a final volume of 200 μL) of assay buffer containing 50 mM of Tris-HCl (pH 7.4), […], 1 mg % aprotinin, 1 mg % leupeptin, 2 mg % 1,10-phenanthroline, 10 mg % trypsin inhibitor, and 0.1 mM PMSF. The inhibitors are added on the day of the experiment. […]", "units": {"V2 % inhibition at 100 nM": "%", "inhibition at 0.1 µM": "%"}, "values": [
      {"smiles": "Cc1ccccc1C(=O)NNC(=O)c1ccc2n1Cc1ccccc1N(C(=O)c1ccc(C3CCCCC3)cc1)C2", "note": "[Example 12, 10-(4-Cyclohexyl-benzoyl)-N′-(2-methylbenzoyl)-10,11-dihydro-5H-pyrrolo[2,1-c][1,4]benzodiazepine-3-carbonyl-hydrazide]", "V2 % inhibition at 100 nM": 7},
      {"smiles": "O=C(c1ccc2n1Cc1ccccc1N(C(=O)c1ccc(C3CCCCC3)cc1)C2)N1CCN(CCN2CCOCC2)CC1", "note": "[Example 42, [10(4-Cyclohexyl-benzoyl)-10,11-dihydro-5H-pyrrolo[2,1-c][1,4]benzodiazepin-3-yl]{4-[2-(4-morpholinyl)ethyl]-1-piperazinyl}methanone]", "inhibition at 0.1 µM": 4},
      {"smiles": "O=C(c1ccc2n1Cc1ccccc1N(C(=O)c1ccc(C3CCCCC3)cc1)C2)N1CCN(c2ccncc2)CC1", "note": "[Example 54, [10-(4-Cyclohexyl-benzoyl)-10,11-dihydro-5H-pyrrolo[2,1-c][1,4]benzpdiazepin-3-yl][4-(4-pyridinyl)-1-piperazinyl]-methanone]", "V2 % inhibition at 100 nM": 6},
      {"smiles": "COc1ccc(NC(=O)c2ccc3n2Cc2ccccc2N(C(=O)c2ccc(C4CCCCC4)cc2)C3)cc1", "note": "[Example 29, 10-(4-Cyclohexyl-benzoyl)-10,11-dihydro-5H-pyrrolo[2,1-c][1,4]benzodiazepine-3-carboxylic acid (4-methoxy-phenyl)-amide]", "inhibition at 0.1 µM": 8},
      {"smiles": "O=C(O)c1ccc2n1Cc1ccccc1N(C(=O)c1ccc(C3CCCCC3)cc1)C2", "note": "[Example 22, 10-(4-Cyclohexyl-benzoyl)-10,11-dihydro-5H-pyrrolo[2,1 c][1,4]benzodiazepine-3-carboxylic acid]", "V2 % inhibition at 100 nM": 19},
      {"smiles": "CN(N)C(=O)c1ccc2n1Cc1ccccc1N(C(=O)c1ccc(C3CCCCC3)cc1)C2", "note": "[Example 21, 10-(4-Cyclohexyl-benzoyl)-N-methyl-10,11-dihydro-5H-pyrrolo[2,1-c][1,4]benzodiazepine-3-carboxylic acid hydrazide]", "inhibition at 0.1 µM": 13},
      {"smiles": "CN1CCN(C(=O)c2ccc3n2Cc2ccc(C(=O)O)cc2N(C(=O)c2ccc(C4CCCCC4)cc2)C3)CC1", "note": "[Example 3, 10-(4-Cyclohexyl-benzoyl)-3-[(4-methyl-1-piperazinyl)carbonyl]-10,11-dihydro-5H-pyrrolo[2,1-c][1,4]benzodiazepine-8-carboxylic acid]", "inhibition at 0.1 µM": -4},
      {"smiles": "O=C(c1ccc2n1Cc1ccccc1N(C(=O)c1ccc(C3CCCCC3)cc1)C2)N1CCN(CCO)CC1", "note": "[Example 48, [10-(4-Cyclohexyl-benzoyl)-10,11-dihydro-5H-pyrrolo[2,1-c][1,4]benzodiazepin-3-y][4-(2-hydroxyethyl)-1-piperazinyl]methanone]", "V2 % inhibition at 100 nM": 14},
      {"smiles": "CN1CCCN(C(=O)c2ccc3n2Cc2ccccc2N(C(=O)c2ccc(C4CCCCC4)cc2)C3)CC1", "note": "[Example 30, [10-(4-Cyclohexyl-benzoyl)-10,11-dihydro-5H-pyrrolo[2,1-c][1,4]benzodiazepin-3-yl](4-methyl-[1,4]-diazepan-1-yl)-methanone]", "inhibition at 0.1 µM": 15}
    ]},
    {"target": "human V2 vasopressin receptor subtype (Homo sapiens, UniProt P30518)", "test": "Vasopressin binding in CHO cell membranes expressing human vasopressin V2 subtype receptors", "conditions": "[3H]arginine vasopressin, value in parentheses", "text": "as §1, §2, §3, §4", "units": {"IC50": "nM"}, "values": [
      {"smiles": "C/C(=N\\C(=O)c1ccc2n1Cc1ccccc1N(C(=O)c1ccc(C3CCCCC3)cc1)C2)N(C)C", "note": "[Example 18]", "IC50": 294},
      {"smiles": "CC(=O)c1ccc2n1Cc1ccccc1N(C(=O)c1ccc(C3CCCCC3)cc1)C2", "note": "[Example 6, 1-[10-(4-Cyclohexyl-benzoyl)-10,11-dihydro-5H-pyrrolo[2,1-c][1,4]benzodiazepin-3-yl]-ethanone]", "IC50": "> 1000"}
    ]}
  ]
}
